Laboratory results published in patent publication US20110027324A1, “O-DESMETHYL-V[…] TREATING MAJOR DEPRESSIVE DISORDER” (Wyeth LLC, priority 2007, published 2011).

Assays:
[1] = tested on: norepinephrine and serotonin uptake; details: Klamerus et al., J. Clin. Pharmacol. 32:716-724 (1992); cited from earlier work
[2] = tested on: subjects with a primary diagnosis of MDD; test: MDD Study No. 3: efficacy evaluation, randomized double-blind placebo-controlled study; type: in vivo, human; details: for CGI-S score, Δ from Baseline: baseline 4.3, placebo −1.10; for HAM-D6, Δ from Baseline: placebo −4.82; for MADRS total score, Δ from Baseline: placebo −11.0
Method: This example describes the results of a third multicenter, randomized, double-blind, placebo-controlled, parallel-group study that was also designed to evaluate the efficacy and safety of 50 and 100 mg/day ODV for treating MDD.
Subjects were male or female adults that met the same criteria as the subjects in Example 1. The administration protocols for 50 or 100 mg/day and placebo groups were the same as in Example 1.
The primary and secondary outcomes were the same as in Example 1 as were the statistical methods. A Global F-test was also used to analyze the results. The purpose of this test was to compare the two fixed doses with placebo to control for Type-I error. Statistical significance is met if the p-value for the Global F-test <0.05, followed by un-adjusted pairwise comparison between either dose and placebo at 0.05 significance level.

[3] = tested on: subjects with a primary diagnosis of MDD; test: MDD Study No. 1: safety evaluation (AEs, DESS, laboratory, vital signs, ECG); type: in vivo, human; details: for subjects with AEs as reason for study discontinuation: double-blind on-therapy period, placebo 3%; for subjects reporting serious or noteworthy AEs: none in placebo; for subjects with AEs of clinical importance: placebo 4
Method: On study day −1 (baseline), eligible subjects were randomly assigned to 1 of 2 fixed doses of ODV (50 or 100 mg/day) or to placebo for the 8-week double-blind treatment period. A 7-day taper period after the end of double-blind treatment was recommended but may have been omitted, shortened, or lengthened at the discretion of the investigator. Subjects assigned to the ODV 50 mg dose group received their maintenance dose beginning on study day 1 and continued this regimen until study day 56 or early withdrawal. For the taper period (days 1 through 7 after the end of the double-blind treatment period), they received 0 mg. Subjects assigned to the ODV 100 mg dose group were titrated to their maintenance dose. On study days 1 through 7 they received ODV 50 mg/day. Beginning on study day 8, they received their assigned dose of ODV 100 mg/day and continued on this regimen until study day 56 or early withdrawal. For the taper period (days 1 through 7 after the end of the double-blind treatment period), they received ODV 50 mg/day. Subjects assigned to placebo received their maintenance dose (0 mg) from study day 1 through day 56 or early withdrawal, and also received 0 mg during the taper period.
The safety of the two doses was determined using the following assessments: monitoring of adverse events (AEs), withdrawal because of AEs, concomitant medications, physical examinations, standard 12-lead electrocardiograms (ECGs), vital signs (supine and standing pulse rate and blood pressure (BP); body weight), laboratory determinations (hematology, blood chemistry, and urinalysis; free thyroxine index, including total thyroxine and triiodothyronine, and the β-HCG), and the Discontinuation-Emergent Signs and Symptoms (DESS) checklist.

[4] = tested on: subjects with a primary diagnosis of MDD; test: MDD Study No. 2: efficacy evaluation, randomized double-blind placebo-controlled study; type: in vivo, human
Method: This example describes the results of a second multicenter, randomized, double-blind, placebo-controlled, parallel-group study that was also designed to evaluate the efficacy and safety of 50 and 100 mg/day ODV for treating MDD.
Subjects were male or female adults that met the same criteria as the subjects in Example 1. The planned enrollment was 450 subjects. A total of 565 subjects were screened for participation; 80 were screen failures and 485 were randomly assigned to treatment: 161 were assigned to receive placebo, 166 were assigned to receive ODV 50 mg/day; and 158 were assigned to receive ODV 100 mg/day. All 485 randomized subjects were included in the safety population (completed the prestudy period and took at least 1 dose of double-blind study drug). The intent-to-treat [ITT] efficacy population included 483 subjects, and the per-protocol [PP] efficacy population included 440 subjects. Completers for exposure (353 subjects) were defined as subjects who had at least 53 days of exposure to study drug.
The administration protocols for 50 or 100 mg/day and placebo groups were the same as in Example 1.
The primary and secondary outcomes were the same as in Example 1 as were the statistical methods. P-values of less than 0.05 are shown in bold.

[5] = tested on: subjects with a primary diagnosis of MDD; test: MDD Study No. 3: safety evaluation (discontinuations, AEs); type: in vivo, human; details: count; for Adverse Event Abnormal Dreams, subjects / Adverse Event Vomiting, subjects: placebo 3 (2); for Adverse Event Constipation, subjects: placebo 4 (3); for Adverse Event Anorexia, subjects / Adverse Event Flu Syndrome, subjects: placebo 5 (3); for Adverse Event Asthenia, subjects / Adverse Event Insomnia, subjects: placebo 6 (4); for Adverse Event Somnolence, subjects: placebo 8 (5); for Adverse Event Nausea, subjects: placebo 14 (9)
Method: The safety of the two doses was determined using the same assessments as in Example 1.

[6] = 50 mg group, number of subjects
[7] = 100 mg group, number of subjects

Question: Which “inhibition of norepinephrine and serotonin uptake” value [1] does the source give for `CN(C)CC(c1ccc(O)cc1)C1(O)CCCCC1` (stereo not shown) [ODV, 1-[2-(dimethylamino)-1-(4-phenol)ethyl]-cyclohexanol] here?
Answer: has been shown to inhibit norepinephrine and serotonin uptake

Question: What about the “HAM-D17 total score, Diff. versus Placebo (95% CI)” value (“HAM-D17 total score … (95% CI)” for short) ([2]; 50 mg/day, LOCF) of the same compound?
Answer: 1.1 (−0.6, 2.7)

Question: What about the “HAM-D17 total score … (95% CI)” value ([2]; 50 mg/day, MMRM) of the same compound?
Answer: 1.4 (−0.0, 2.8)

Question: And the “HAM-D17 total score … (95% CI)” value ([2]; 50 mg/day, OC)?
Answer: 1.8 (−0.1, 3.6)

Question: What about the “CGI-S score, Δ from Baseline” value ([2]; 50 mg/day) of the same compound?
Answer: −1.25

Question: And the “HAM-D6, Δ from Baseline” value ([2]; 50 mg/day, baseline 12.8)?
Answer: −5.41

Question: What about the “MADRS total score, Δ from Baseline” value ([2]; 50 mg/day, baseline 30.1) of the same compound?
Answer: −12.7

Question: And the “HAM-D17 total score … (95% CI)” value ([2]; 100 mg/day, LOCF)?
Answer: 1.8 (0.2, 3.4)

Question: And the “HAM-D17 total score … (95% CI)” value ([2]; 100 mg/day, MMRM)?
Answer: 2.2 (0.7, 3.6)

Question: What about the “HAM-D17 total score … (95% CI)” value ([2]; 100 mg/day, OC) of the same compound?
Answer: 2.9 (1.0, 4.7)

Question: And the “CGI-S score, Δ from Baseline” value ([2]; 100 mg/day)?
Answer: −1.44

Question: What about the “HAM-D6, Δ from Baseline” value ([2]; 100 mg/day, baseline 12.9) of the same compound?
Answer: −6.15

Question: And the “MADRS total score, Δ from Baseline” value ([2]; 100 mg/day, baseline 30.0)?
Answer: −14.4

Question: And the “most common (incidence≧5%) taper/poststudy-emergent AEs” value ([3]; 50 mg group)?
Answer: diarrhea, nausea, abnormal dreams, dizziness, and hostility

Question: And the “subjects with AEs as reason for study discontinuation” value ([3]; 50 mg group, 151 subjects)?
Answer: 3%

Question: And the “p-value, mean DESS scores compared with placebo” value ([3]; 50 mg group, first week of the taper period)?
Answer: 0.001

Question: What about the “subjects with clinically important AE hypertension” value [3, 6] of the same compound?
Answer: 2

Question: And the “subjects with clinically important AE hypotension” value [3, 6]?
Answer: 2

Question: What about the “subjects with laboratory values considered clinically important by the medical monitor” value [3, 6] of the same compound?
Answer: 2

Question: And the “subjects reporting serious or noteworthy AEs” value [3, 6]?
Answer: 5

Question: What about the “subjects with AEs of clinical importance” value [3, 6] of the same compound?
Answer: 13

Question: What about the “subjects with AEs as reason for study discontinuation” value ([3]; 100 mg group, 148 subjects) of the same compound?
Answer: 7%

Question: And the “subjects with clinically important AE hypertension” value [3, 7]?
Answer: 1

Question: What about the “subjects with laboratory values considered clinically important by the medical monitor” value [3, 7] of the same compound?
Answer: 3

Question: What about the “subjects reporting serious or noteworthy AEs” value [3, 7] of the same compound?
Answer: 4

Question: What about the “subjects with AEs of clinical importance” value [3, 7] of the same compound?
Answer: 10

Question: What about the “subjects with clinically important vital signs results” value ([3]; ODV treated subjects, both doses, 3 elevated supine BP, 1 postural hypotension) of the same compound?
Answer: four

Question: And the “clinically important findings for ECGs or ECG-related AEs” value ([3]; all subjects, 50 and 100 mg/day)?
Answer: None of the subjects had clinically important findings for ECGs

Question: What about the “HAM-D17 total score, adjusted mean change from baseline” value ([4]; 50 mg/day, FOT evaluation, ANCOVA LOCF, placebo −10.7) of the same compound?
Answer: −13.2

Question: And the “HAM-D17 total score, adjusted mean change from baseline” value ([4]; 50 mg/day, week 8, mixed effect model, placebo −11.5)?
Answer: −14.4

Question: What about the “HAM-D17 total score, adjusted mean change from baseline” value ([4]; 100 mg/day, FOT evaluation, ANCOVA LOCF, placebo −10.7) of the same compound?
Answer: −13.7

Question: And the “HAM-D17 total score, adjusted mean change from baseline” value ([4]; 100 mg/day, week 8, mixed effect model, placebo −11.5)?
Answer: −14.9

Question: And the “Discontinued, reason Adverse Event, subjects” value ([5]; 50 mg, n = 148)?
Answer: 8 (5)

Question: What about the “Adverse Event Abnormal Dreams, subjects” value ([5]; 50 mg, n = 148) of the same compound?
Answer: 5 (3)

Question: And the “Adverse Event Vomiting, subjects” value ([5]; 50 mg, n = 148)?
Answer: 2 (1)

Question: What about the “Adverse Event Constipation, subjects” value ([5]; 50 mg, n = 148) of the same compound?
Answer: 9 (6)

Question: And the “Adverse Event Anorexia, subjects” value ([5]; 50 mg, n = 148)?
Answer: 14 (10)

Question: What about the “Adverse Event Flu Syndrome, subjects” value ([5]; 50 mg, n = 148) of the same compound?
Answer: 6 (4)

Question: What about the “Adverse Event Asthenia, subjects” value ([5]; 50 mg, n = 148) of the same compound?
Answer: 12 (8)

Question: And the “Adverse Event Insomnia, subjects” value ([5]; 50 mg, n = 148)?
Answer: 20 (14)

Question: And the “Adverse Event Somnolence, subjects” value ([5]; 50 mg, n = 148)?
Answer: 14 (10)

Question: And the “Adverse Event Nausea, subjects” value ([5]; 50 mg, n = 148)?
Answer: 33 (22)

Question: What about the “Discontinued, reason Adverse Event, subjects” value ([5]; 100 mg, n = 150) of the same compound?
Answer: 11 (7)

Question: What about the “Adverse Event Abnormal Dreams, subjects” value ([5]; 100 mg, n = 150) of the same compound?
Answer: 4 (3)

Question: What about the “Adverse Event Vomiting, subjects” value ([5]; 100 mg, n = 150) of the same compound?
Answer: 6 (4)

Question: What about the “Adverse Event Constipation, subjects” value ([5]; 100 mg, n = 150) of the same compound?
Answer: 10 (7)

Question: And the “Adverse Event Anorexia, subjects” value ([5]; 100 mg, n = 150)?
Answer: 14 (9)

Question: And the “Adverse Event Flu Syndrome, subjects” value ([5]; 100 mg, n = 150)?
Answer: 10 (7)

Question: And the “Adverse Event Asthenia, subjects” value ([5]; 100 mg, n = 150)?
Answer: 18 (12)

Question: And the “Adverse Event Insomnia, subjects” value ([5]; 100 mg, n = 150)?
Answer: 26 (17)

Question: What about the “Adverse Event Somnolence, subjects” value ([5]; 100 mg, n = 150) of the same compound?
Answer: 18 (12)

Question: And the “Adverse Event Nausea, subjects” value ([5]; 100 mg, n = 150)?
Answer: 35 (23)
